In publication PMC10122656, “Siglec-6 mediates the uptake of extracellular vesicles through a noncanonical glycolipid binding pocket” (Nature Communications, 2023):
“And” between values parts separate entries of the source, which are not always exact repeats. Equal values may be shown once.

How the values were obtained:
[1] = test system: syncytiotrophoblasts of placental explants; test: Liposome uptake assay in the placenta explants (confocal microscopy); type: cell-based, human; conditions: for liposome binding/uptake, fluorescence signal (replicates): cells not given
[2] = target: T1, Daudi cells transduced with WT Siglec-6 (Homo sapiens, UniProt O43699); test: pHrodo internalization assay by flow cytometry; type: cell-based; conditions: for liposome internalization signal (replicates): sheet Figure S42b
T1 construct: expressed in transfected cells; host or cells: Daudi cells (human B-cell line), lentiviral transduction
T1 sequence (O43699 27-453): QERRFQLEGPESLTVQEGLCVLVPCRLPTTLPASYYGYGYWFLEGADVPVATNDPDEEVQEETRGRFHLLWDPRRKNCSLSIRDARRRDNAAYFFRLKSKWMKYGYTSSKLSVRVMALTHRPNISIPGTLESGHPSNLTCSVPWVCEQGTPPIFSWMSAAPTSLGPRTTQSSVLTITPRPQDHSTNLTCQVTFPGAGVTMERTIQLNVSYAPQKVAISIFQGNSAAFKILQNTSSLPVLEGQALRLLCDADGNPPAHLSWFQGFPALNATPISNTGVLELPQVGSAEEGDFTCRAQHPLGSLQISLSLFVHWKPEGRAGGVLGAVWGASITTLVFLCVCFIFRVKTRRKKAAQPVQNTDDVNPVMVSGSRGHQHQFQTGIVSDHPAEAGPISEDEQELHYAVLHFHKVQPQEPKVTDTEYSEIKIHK
Protocol: Siglec-6 lentivirus was produced as previously reported by Bhattacherjee, A. et al.[72]. Briefly, 1 × 10^6 HEK293T cells were plated in a 6-well dish containing 1.5 mL of DMEM growth medium (Gibco) containing 10% (V/V) fetal bovine serum (FBS; Gibco), 100 U/mL penicillin (Gibco) and 100 µg/mL streptomycin (Gibco). 24 h later, a mixture of 625 ng RP18, 625 ng RP19, 1250 ng hSiglec-6 vector, 7.5 µL TransIT®-LT1 Reagent (Mirus Bio), and Opti-MEM media (Gibco) was added to the HEK293T cells. Cells were incubated with this transfection mixture at 37 °C, 5% CO2 for 72 h. Following transfection, the cell supernatant was harvested and concentrated using Lenti-X concentrator reagent (Takara Bio) following the manufacturer’s instructions.
1.5 × 10^5 Daudi cells were plated in a 24-well plate in 250 µL of RPMI growth medium (Gibco) containing 10% (V/V) fetal bovine serum (FBS; Gibco), 100 U/mL penicillin (Gibco) and 100 µg/mL streptomycin (Gibco). A range of 10X concentrated lentivirus (1, 2, 5, 10 µL) was added to the corresponding wells and incubated for approximately 8 h at 37 °C, 5% CO2 in a tissue culture incubator. After incubation, the media in each well was topped up to 750 µL. Three days post-transduction, 200 µL of cells were plated in a 96-well U-bottom plate and centrifuged at 300 × g for 5 min. The cell pellets were resuspended in 150 µL of flow cytometry buffer (HBSS containing 1% (V/V) FBS, 500 µM EDTA) and the titer of each virus was determined by measuring the mAmentrine+ cells in each well by flow cytometry. The mAmetrine+ cells, ranging from 0.5% to 5%, were re-plated in six-well plates. The mAmetrine+ virally transduced cells were selected for using 300 µg/mL zeocin until the mAmetrine+ population was ≥95%.
Human peripheral blood, taken under an approved institutional ethics protocol, was centrifuged at 1700 × g for 5 min at 4 °C. The upper phase (plasma) was collected and centrifuged at 10,000 × g for 30 min at 4 °C. […]

Siglec-1-Fc R116A = test: Liposome over lectin assay (LOLA); type: binding, human; conditions: Siglec-1 R (arginine mutant); replicates
Chain of Siglec-1-Fc R116A (Q9BZZ2 20-136 R116A limits assumed): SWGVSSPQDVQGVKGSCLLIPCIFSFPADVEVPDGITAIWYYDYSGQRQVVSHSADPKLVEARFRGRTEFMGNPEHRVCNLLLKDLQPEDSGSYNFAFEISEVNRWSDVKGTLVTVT
Protocol: Siglec-Fc constructs designed by Rodrigues et al.[30] were used in this work. Siglec-Fc constructs were expressed using WT CHO cells in cell culture media as described above with 1% HEPES. Cells incubated as described above for one-week post confluency. The supernatant was harvested and stored at 4 °C.
The purification was heavily inspired by Rodrigues et al.[30]. The purification of the Siglec-Fcs from supernatant began with Ni^2+ affinity chromatography using an AKTA FPLC equipped with a HisTrap Excel column (GE). The column was equilibrated with fifteen column volumes (CVs) of equilibrium buffer (500 mM NaCl, 20 mM NaPO4H2, pH 7.4). The Siglec-Fc containing supernatant was then loaded in its entirety onto the column. The column was then washed with fifteen CVs of wash buffer (500 mM NaCl, 30 mM imidazole, 20 mM NaPO4H2, pH 7.4). The Siglec-Fc was then eluted in 20 in 1 mL fractions with twenty CVs of elution buffer (500 mM NaCl, 500 mM imidazole, 20 mM NaPO4H2, pH 7.4). Fractions containing Siglec-Fc were compiled and then prepared for the next stage of purification by diluting the fractions 1:4 with buffer W (100 mM Tris–HCl, 150 mM NaCl, 1 mM EDTA, pH 8.0). A Strep-Tactin column (IBA life sciences) was washed with fifteen CVs of buffer W. The Siglec-Fc-buffer W solution was then loaded in its entirety onto the column. The bound Siglec-Fc was then washed with fifteen CVs of buffer W. Siglec-Fc was eluted from the column with 15 column volumes of buffer E (100 mM Tris–HCl, 150 mM NaCl, 1 mM EDTA, 10 mM d-Desthiobiotin, pH 8.0). Fractions containing Siglec-Fc were pooled and dialyzed against PBS to remove any d-Desthiobiotin. After dialysis, Siglec-Fcs were concentrated using an ultra-centrifugal device (30 kDa MWCO) and aliquoted into 5 µg aliquots, and frozen. The Siglec-Fcs were then lyophilized overnight, and the lyophilized Siglec-Fcs were stored at −20 °C.
Siglec-Fc in PBS was adsorbed to a 96-well flat-bottom fluorescent microplate by adding 1 µg/well and incubating the plate at 4 °C overnight. The plate was then washed with PBS followed by blocking with 5% (m/V) BSA in PBS for 1 h at room temperature. The plate was again washed with PBS and 100 µM liposome in PBS was added to each well. The plate was then incubated at 37 °C for 30 min followed by washing with PBS. PBS was then added to the plate and the fluorescence intensity (λex 640 nm, λem 680 nm) of each well was measured using a Molecular Devices SpectraMAX ® iD5.

For CCCCCCCCCCCCCCCCOCC(COCCCCCCCCCCCCCCCC)OCc1cn(CCO[C@@H]2O[C@H](CO)[C@@H](O[C@@H]3O[C@H](CO)[C@H](O)[C@H](O[C@]4(C(=O)O)C[C@H](O)[C@@H](NC(C)=O)[C@H]([C@H](O)[C@H](O)CO)O4)[C@H]3O)[C@H](O)[C@H]2O)nn1 [GM3-DAG], the “liposome binding/uptake, fluorescence signal (replicates)” value ([1]; sheet Figure S31, 5% GM3-DAG liposomes + mAb) was 5737 and 5556 and 5976 and the “liposome binding/uptake, fluorescence signal (replicates)” value ([1]; sheet Figure S31, 5% GM3-DAG liposomes, no mAb) was 20862 and 18720 and 19576.

In the case of CCCCCCCCCCCCCCCCOCC(COCCCCCCCCCCCCCCCC)OCc1cn(CCO[C@@H]2O[C@H](CO)[C@@H](O[C@@H]3O[C@H](CO)[C@H](O)[C@H](O[C@]4(C(=O)O)C[C@H](O)[C@@H](NC(C)=O)[C@H]([C@H](O)[C@H](O)CO)O4)[C@H]3O)[C@H](O)[C@H]2O)nn1 [nGL 5], the “puncta of 5 nGLLs on syncytiotrophoblasts compared to naked liposomes” value ([1]; live human placental explants, 50 μM liposome, 2 h) is reported as “significantly more puncta”, the “5 nGLL interaction with syncytiotrophoblasts after pre-treatment with anti-Siglec-6 antibody” value ([1]; placental explants) is reported as “blocked these interactions” and the “colocalization of 5 nGLLs with Siglec-6 compared to naked liposomes” value ([1]; placental explants) is reported as “strong colocalization”. For the same compound, the “pHrodo signal of 5 nGLLs in Siglec-6 Daudi cells” value ([2]; independent of Arg122, only at 37 °C) was “time-dependent increase in pHrodo signal”.

GD1a was tested, and the “LOLA: GLL binding, fluorescence plate reader (Fig. 2e)” value (from here on “LOLA: GLL binding”) (Siglec-1-Fc R116A) was 8.88 and 7.01 and 5.82 and 9.99 and 5.45.

GD3 was tested, and the “LOLA: GLL binding” value (Siglec-1-Fc R116A) was 6.08 and 3.44 and 4.47 and 3.34 and 3.26.

GM1 was tested, and the “LOLA: GLL binding” value (Siglec-1-Fc R116A) was 6.6 and 6.11 and 3.97 and 6.44 and 3.68.

In the case of GM3, the “liposome internalization signal (replicates)” value ([2]; WT-4) is reported as 16.4 and 15.8 and 17.6 and 19.4 and the “liposome internalization signal (replicates)” value ([2]; WT-37) is reported as 30.6 and 27.6 and 33.7 and 27.8.

In the case of GQ1b, the “LOLA: GLL binding” value (Siglec-1-Fc R116A) is reported as 6.93 and 2.97 and 4.43 and 6.13 and 5.67.
